Each structure is given as a SMILES string.

One test concerns RAW. The experiment in a line: Tested for the inhibition of nitric oxide syntheses in murine macrophage cell line RAW 264.7 at a concentration of 30 uM. Format: cell-based.
A short description of test [1]: Tested for the inhibition of nitric oxide syntheses in murine macrophage cell line RAW 264.7. The test is classed as cell-based.
A further test relates to L929. The experiment in a line: Relative cytotoxicity measured as inhibition of LPS induced TNF alpha production in L929 cells at 10 uM. Format: functional, Mus musculus. More on the design: scale not given: the % may be the effect or the level left.
A further test relates to RAW264.7. Description: Tested for the inhibition of NO production in RAW 264.7 cells. The test is classed as functional, Mus musculus.

In the test with RAW, `COc1cc(OC)c([C@@H]2[C@@H](C)[C@H](C)[C@H]2c2cc(OC)c(OC)cc2OC)cc1OC` returned an inhibition of 17%. The IC50 in test [1] is 5.9 µM. Further, in the test on L929, the Activity is 26%.

Consider `COc1cc(OC)c([C@@H]2[C@H](C)[C@@H](C)[C@H]2c2cc(OC)c(OC)cc2OC)cc1OC` [MAGNOSALIN], for which the IC50 in test [1] was found to be 53.5 µM. In the test on L929, this compound came in with an Activity of 84%.

For `N=C(N)NN` [PIMAGEDINE], the Inhibition in the test on RAW264.7 came to 79%.
